The record followed here is patent US8344008B2 (Janssen Pharmaceutica NV, priority 2007, dated 2013).

Where a name gives a salt, the structure may show the parent alone.

The Ki is the dissociation constant of the complex between target and ligand, obtained from inhibition or displacement.

This test deals with T1, recombinant human LTA4 hydrolase (rhLTA4H) (Homo sapiens, UniProt P09960).
T1 construct: made in house; host or cells: Spodoptera frugiperda (Sf-9) cells, baculovirus (pFastBac1)
T1 sequence (P09960 1-611): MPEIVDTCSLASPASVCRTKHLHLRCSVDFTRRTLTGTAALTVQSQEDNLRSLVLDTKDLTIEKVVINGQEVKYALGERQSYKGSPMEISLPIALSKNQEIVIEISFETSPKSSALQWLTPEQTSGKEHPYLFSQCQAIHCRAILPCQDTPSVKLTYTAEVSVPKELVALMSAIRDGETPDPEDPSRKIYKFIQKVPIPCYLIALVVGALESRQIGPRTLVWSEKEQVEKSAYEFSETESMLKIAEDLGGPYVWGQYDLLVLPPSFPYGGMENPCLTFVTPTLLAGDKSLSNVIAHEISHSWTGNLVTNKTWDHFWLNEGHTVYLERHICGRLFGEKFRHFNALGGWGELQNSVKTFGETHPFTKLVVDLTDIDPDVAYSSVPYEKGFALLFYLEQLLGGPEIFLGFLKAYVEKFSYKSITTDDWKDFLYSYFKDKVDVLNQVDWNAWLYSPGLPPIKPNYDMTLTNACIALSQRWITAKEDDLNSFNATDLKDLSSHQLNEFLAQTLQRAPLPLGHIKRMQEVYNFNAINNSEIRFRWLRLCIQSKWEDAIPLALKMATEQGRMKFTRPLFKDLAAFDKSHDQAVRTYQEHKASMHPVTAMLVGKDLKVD
In words: Recombinant Human LTA4 Hydrolase Assay for LTA4 Hydrolase Inhibitor Activity. Type of test: biochemical. Particulars: average of results obtained; LTB4 quantified by enzyme-linked immunoassay. In outline: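 Baculovirus/Sf-9-expressed human LTA4 hydrolase (36 ng) preincubated with compound 10 min at rt in 0.1 M potassium phosphate pH 7.4, 5 mg/mL fatty-acid-free BSA. Reaction started with 9 ng LTA4 free acid, run 10 min at rt; LTB4 measured by enzyme immunoassay, IC50 from 4-parameter fit.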
For the compound `CN(Cc1ccc(Oc2nc3ccccc3s2)cc1)[C@H]1C[C@H]2CC[C@@H](C1)N2C(N)=O` [Example 75, meso-endo-3-{[4-(Benzothiazol-2-yloxy)-benzyl]-methyl-amino}-8-aza-bicyclo[3.2.1]octane-8-carboxylic acid amide], the Ki stood at 95 nM. Regarding `CC(C)(O)C(=O)N1C[C@@H]2C[C@H]1CN2CCc1ccc(Oc2nc3ccccc3s2)cc1` [Example 17, (S,S)-1-(5-{2-[4-(Benzothiazol-2-yloxy)-phenyl]-ethyl}-2,5-diaza-bicyclo[2.2.1]hept-2-yl)-2-hydroxy-2-methyl-propan-1-one], the Ki worked out at 11 nM.

Take `CC(C)(C)OC(=O)NCC(=O)N1C[C@H]2C[C@@H]1CN2Cc1ccc(Oc2nc3ccccc3s2)cc1` [Example 28, (R,R)-(2-{5-[4-(Benzothiazol-2-yloxy)-benzyl]-2,5-diaza-bicyclo[2.2.1]hept-2-yl}-2-oxo-ethyl)-carbamic acid tert-butyl ester]: the Ki turned out to be 88 nM. In the case of `Cc1ccc2nc(Oc3ccc(OCCN[C@H]4C[C@H]5CC[C@@H](C4)N5S(C)(=O)=O)cc3)sc2c1` [Example 220, meso-endo-(8-Methanesulfonyl-8-aza-bicyclo[3.2.1]oct-3-yl)-{2-[4-(6-methyl-benzothiazol-2-yloxy)-phenoxy]-ethyl}-amine] it was 445 nM; in that of `CS(=O)(=O)N1C[C@H]2C[C@@H]1CN2Cc1ccc(Oc2nc3cc(Cl)ccc3s2)cc1` [Example 181, (R,R)-5-Chloro-2-[4-(5-methanesulfonyl-2,5-diaza-bicyclo[2.2.1]hept-2-ylmethyl)-phenoxy]-benzothiazole], 1470 nM; in that of `NC(=O)N1C[C@H]2C[C@@H]1CN2CCc1ccc(Oc2nc3c(Cl)cccc3s2)cc1` [Example 252, (R,R)-5-{2-[4-(4-Chloro-benzothiazol-2-yloxy)-phenyl]-ethyl}-2,5-diaza-bicyclo[2.2.1]heptane-2-carboxylic acid amide], 108 nM. Then `CS(=O)(=O)N1CC2CCC(C1)N2Cc1ccc(Oc2nc3c(F)cccc3s2)cc1` [Example 258, meso-4-Fluoro-2-[4-(3-methanesulfonyl-3,8-diaza-bicyclo[3.2.1]oct-8-ylmethyl)-phenoxy]-benzothiazole], with 8 nM; and `CS(=O)(=O)N1C[C@H]2C[C@@H]1CN2CCc1ccc(Oc2nc3cccc(Cl)c3s2)cc1` [Example 192, (R,R)-7-Chloro-2-{4-[2-(5-methanesulfonyl-2,5-diaza-bicyclo[2.2.1]hept-2-yl)-ethyl]-phenoxy}-benzothiazole], with above 10000 nM.

Take `CS(=O)(=O)N1C[C@@H]2C[C@H]1CN2CCOc1ccc(Oc2nc3cccc(Cl)c3s2)cc1` [Example 182, (S,S)-7-Chloro-2-{4-[2-(5-methanesulfonyl-2,5-diaza-bicyclo[2.2.1]hept-2-yl)-ethoxy]-phenoxy}-benzothiazole]: the Ki was 1590 nM. In the case of `NC(=O)N[C@@H]1C[C@H]2CC[C@@H](C1)N2CCOc1ccc(Oc2nc3c(F)cccc3s2)cc1` [Example 204, meso-exo-(8-{2-[4-(4-Fluoro-benzothiazol-2-yloxy)-phenoxy]-ethyl}-8-aza-bicyclo[3.2.1]oct-3-yl)-urea] it was 5 nM; in that of `NC(=O)N1CCC2CN(Cc3ccc(Oc4nc5ccccc5s4)cc3)CC21` (centres unmarked) [Example 135, 5-[4-(Benzothiazol-2-yloxy)-benzyl]-hexahydro-pyrrolo[3,4-b]pyrrole-1-carboxylic acid amide], 57 nM; in that of `c1ccc2sc(Oc3ccc(CN4CCC5CNCC5C4)cc3)nc2c1` (centres unmarked) [Example 85, 2-[4-(Octahydro-pyrrolo[3,4-c]pyridin-5-ylmethyl)-phenoxy]-benzothiazole hydrochloride], 450 nM.

For `NC(=O)N1[C@@H]2CC[C@H]1C[C@@H](NCc1ccc(Oc3nc4cccc(F)c4s3)cc1)C2` [Example 226, meso-endo-3-[4-(7-Fluoro-benzothiazol-2-yloxy)-benzylamino]-8-aza-bicyclo[3.2.1]octane-8-carboxylic acid amide], the Ki came to 90 nM. For the compound `CS(=O)(=O)N1C[C@@H]2C[C@H]1CN2Cc1ccc(Oc2nc3cc(Cl)ccc3s2)cc1` [Example 206, (S,S)-5-Chloro-2-[4-(5-methanesulfonyl-2,5-diaza-bicyclo[2.2.1]hept-2-ylmethyl)-phenoxy]-benzothiazole], the Ki is 1100 nM. In the case of `Cc1ccc2nc(Oc3ccc(CN4CC5CN(C(N)=O)CC5C4)cc3)sc2c1` (centres unmarked) [Example 145, 5-[4-(6-Methyl-benzothiazol-2-yloxy)-benzyl]-hexahydro-pyrrolo[3,4-c]pyrrole-2-carboxylic acid amide] it was 597 nM; in that of `O=C(N1C[C@@H]2C[C@H]1CN2CCOc1ccc(Oc2nc3ccccc3s2)cc1)C1(O)CC1` [Example 27, (S,S)-(5-{2-[4-(Benzothiazol-2-yloxy)-phenoxy]-ethyl}-2,5-diaza-bicyclo[2.2.1]hept-2-yl)-(1-hydroxy-cyclopropyl)-methanone], 1 nM. In the case of `O=C(CO)N1C[C@@H]2C[C@H]1CN2CCOc1ccc(Oc2nc3ccccc3s2)cc1` [Example 23, (S,S)-1-(5-{2-[4-(Benzothiazol-2-yloxy)-phenoxy]-ethyl}-2,5-diaza-bicyclo[2.2.1]hept-2-yl)-2-hydroxy-ethanone], the Ki turned out to be 26 nM. Then `NC(=O)N1CC2CN(Cc3ccc(Oc4nc5ccc(F)cc5s4)cc3)CC2C1` (centres unmarked) [Example 144, 5-[4-(6-Fluoro-benzothiazol-2-yloxy)-benzyl]-hexahydro-pyrrolo[3,4-c]pyrrole-2-carboxylic acid amide], with 101 nM.

Turning to `CC(=O)N1C[C@H]2C[C@@H]1CN2CCOc1ccc(Oc2nc3cccc(F)c3s2)cc1` [Example 249, (R,R)-1-(5-{2-[4-(7-Fluoro-benzothiazol-2-yloxy)-phenoxy]-ethyl}-2,5-diaza-bicyclo[2.2.1]hept-2-yl)-ethanone], the inhibition constant Ki came out at 11 nM. Then `Cc1ccc2nc(Oc3ccc(CN4[C@@H]5CC[C@H]4C[C@H](NS(C)(=O)=O)C5)cc3)sc2c1` [Example 200, meso-exo-N-{8-[4-(6-Methyl-benzothiazol-2-yloxy)-benzyl]-8-aza-bicyclo[3.2.1]oct-3-yl}-methanesulfonamide], with 65 nM; and `CS(=O)(=O)N1C[C@H]2C[C@@H]1CN2Cc1ccc(Oc2nc3ccc(Cl)cc3s2)cc1` [Example 236, (R,R)-6-Chloro-2-[4-(5-methanesulfonyl-2,5-diaza-bicyclo[2.2.1]hept-2-ylmethyl)-phenoxy]-benzothiazole], with 169 nM. In the case of `CC(=O)N[C@H]1C[C@H]2CC[C@@H](C1)N2CCOc1ccc(Cc2nc3ccccc3s2)cc1` [Example 152, N-{8-[2-(4-Benzothiazol-2-ylmethyl-phenoxy)-ethyl]-8-aza-bicyclo[3.2.1]oct-3-yl}-acetamide] it was 75 nM; in that of `NC(=O)N[C@@H]1C[C@H]2CC[C@@H](C1)N2CCc1ccc(Oc2nc3cc(F)ccc3s2)cc1` [Example 242, meso-exo-(8-{2-[4-(5-Fluoro-benzothiazol-2-yloxy)-phenyl]-ethyl}-8-aza-bicyclo[3.2.1]oct-3-yl)-urea], 398 nM. On to `CC(C)(O)C(=O)N1C[C@H]2C[C@@H]1CN2Cc1ccc(Oc2nc3ccccc3s2)cc1` [Example 24, (R,R)-1-{5-[4-(Benzothiazol-2-yloxy)-benzyl]-2,5-diaza-bicyclo[2.2.1]hept-2-yl}-2-hydroxy-2-methyl-propan-1-one], for which the inhibition constant Ki was 52 nM.

Take `CC(=O)N[C@@H]1C[C@H]2CC[C@@H](C1)N2CCOc1ccc(Oc2nc3cccc(Cl)c3s2)cc1` [Example 195, meso-exo-N-(8-{2-[4-(7-Chloro-benzothiazol-2-yloxy)-phenoxy]-ethyl}-8-aza-bicyclo[3.2.1]oct-3-yl)-acetamide]: the Ki turned out to be 1660 nM. Turning to `NC(=O)N1C[C@H]2CCN(Cc3ccc(Oc4nc5ccccc5s4)cc3)[C@H]2C1` [Example 138, (R,R)-1-[4-(Benzothiazol-2-yloxy)-benzyl]-hexahydro-pyrrolo[3,4-b]pyrrole-5-carboxylic acid amide], the Ki came to 29 nM. Regarding `O=S(=O)(c1cccs1)N1CC2CN(Cc3ccc(Oc4nc5ccccc5s4)cc3)CC2C1` (centres unmarked) [Example 124, 2-{4-[5-(Thiophene-2-sulfonyl)-hexahydro-pyrrolo[3,4-c]pyrrol-2-ylmethyl]-phenoxy}-benzothiazole], the inhibitory constant (Ki) amounted to 2290 nM. Turning to `CC(C)(O)C(=O)N[C@H]1C[C@H]2CC[C@@H](C1)N2Cc1ccc(Oc2nc3ccccc3s2)cc1` [Example 54, meso-endo-N-{8-[4-(Benzothiazol-2-yloxy)-benzyl]-8-aza-bicyclo[3.2.1]oct-3-yl}-2-hydroxy-2-methyl-propionamide], the inhibition constant Ki turned out to be 4 nM. Then `CC(=O)N1C[C@H]2C[C@@H]1CN2CCOc1ccc(Oc2nc3ccc(Cl)cc3s2)cc1` [Example 177, (R,R)-1-(5-{2-[4-(6-Chloro-benzothiazol-2-yloxy)-phenoxy]-ethyl}-2,5-diaza-bicyclo[2.2.1]hept-2-yl)-ethanone], with 94 nM.
